# Patent US8546102B2, “Methods for determining sodium-proton-exchanger ligand efficiency” (Sanofi, priority 2008, dated 2013)
# Where “and” joins values, the source holds several entries; their conditions need not be identical. Equal entries are not always repeated. Where two headings read alike, the source gives them in different places.
# How the values were obtained:
# hNHE1 [1] = target: T1, hNHE1 (Homo sapiens, UniProt P19634); test: Calibration curve of NHE1 activity, compound dilution series in rat plasma; format: cell-based
# T1 construct: expressed in transfected cells
# Procedure: For the cell-based determination of NHE1 ligand efficiency, LAP1 (mouse LTK-cell line) cells stably expressing hNHE1 (see Example 1) were seeded at a density of 25.000 cells/well/100 μl medium (Iscove-medium, 10% FCS, 2 mM L-glutamine, 100 μ/ml penicilline/streptomycine, 50 μg/ml gentamicine, 400 μg/ml G418) on black, clear bottom 96-well microplates (Costar®, Corning Inc., Corning, N.Y.). Cells were incubated overnight at 37° C., 5% CO2 and 90% humidity. The medium was discarded prior to measurement and 100 μl/well dye buffer (20 mM HEPES, pH 7.4 adjusted with KOH, 20 mM NH4Cl, 115 mM choline chloride, 1 mM MgCl2, 1 mM CaCl2, 5 mM KCl, 5 mM glucose, 5 μM BCECF) were added. After incubation for 20 min at 37° C. the cells were washed 3-times with Na^+-free washing buffer (5 mM HEPES, pH 7.4 adjusted with KOH, 133.8 mM choline chloride, 4.7 mM KCl, 1.25 mM CaCl2, 1.25 mM MgCl2, 0.97 mM K2HPO4, 0.23 mM KH2PO4, 5 mM glucose), leaving 90 μl of washing buffer per well. The plasma probes were prepared as followed: 10% (v/v) Na^+-buffer (10 mM HEPES, pH 7.4 adjusted with KOH, 133.8 mM NaCl, 4.7 mM KCl, 1.25 mM MgCl2, 1.25 mM CaCl2, 0.97 mM Na2HPO4, 0.23 mM NaH2PO4, 5 mM glucose) were added to 90% (v/v) rat plasma. High controls (plasma solution without antagonist) and low controls (plasma solution with 20 μM cariporide, 10 μM final concentration) were prepared. A dilution series of cariporide and COMPOUND X in 10% (v/v) Na^+-buffer/90% (v/v) rat plasma was used for a calibration curve to calculate the compound concentration in the rat plasma probes FIGS. 1 and 2). The pH-recovery was measured with a FLIPR (Fluorometric Imaging Plate Reader, Molecular Devices, Sunnyvale, Calif.; laser power 0.3 W, aperture 4, measuring interval 2 s, time of measurement 120 s). During measurement 90 μl of plasma solution were added to the wells. For calculation of NHE1 activity, the increase in fluorescence between the 12th and 32nd s was calculated. The high control was set as 100% activity and the low control as 0% NHE1 activity. Activity (%) of the samples was calculated by a comparison of the controls. Compound plasma levels were calculated in relation to the calibration curve. Additionally, calibration curves were used to calculate the compound plasma levels in the probe sets.
# human NHE1 (hNHE1) = target: T2, human NHE1 (hNHE1) (Homo sapiens, UniProt P19634); test: NHE1 plasma assay (pH recovery, BCECF/FLIPR) with rabbit plasma; format: cell-based
# T2 construct: expressed in transfected cells
# Description: (§1) Plasma samples were obtained from male New Zealand rabbits (2.5-3.5 kg) maintained on standard rabbit chow with 0.3% cariporide (NHE inhibitor). A blood sample was taken after 1 week from the auricular artery for the determination of the plasma concentrations of cariporide. Determination of plasma concentration of cariporide was done as described below:
# (§2) The NHE-Gene (SLC9A1, Franchi A. et al., Proc Natl Acad Sci USA., 1986 December; 83(24):9388-92.) was cloned into the pMamneo-vector and introduced into LAP1 (mouse LTK-cell line) cells. Stable cell lines were generated from transfected cells.
# (§3) LAP1 (mouse LTK-cell line) cells stably expressing human NHE1 (hNHE1) were seeded with a density of 25.000 cells/well/100 μl medium (Iscove-medium, 10% FCS, 2 mM L-glutamine, 100 u/ml penicilline/streptomycine, 50 μg/ml gentamicine, 400 μg/ml G418) on black, clear bottom 96-well microplates (Costar®, Corning Inc., Corning, N.Y.). Cells were incubated overnight at 37° C., 5% CO2 and 90% humidity. The medium was discarded prior to measurement and 100 μl/well dye buffer (20 mM HEPES, pH 7.4 adjusted with KOH, 20 mM NH4Cl, 115 mM choline chloride, 1 mM MgCl2, 1 mM CaCl2, 5 mM KCl, 5 mM glucose, 5 μM BCECF) were added. After incubation for 20 min at 37° C. the cells were washed 3-times with Na^+-free washing buffer (5 mM HEPES, pH 7.4 adjusted with KOH, 133.8 mM choline chloride, 4.7 mM KCl, 1.25 mM CaCl2, 1.25 mM MgCl2, 0.97 mM K2HPO4, 0.23 mM KH2PO4, 5 mM glucose), leaving 90 μl of washing buffer per well. pH-recovery was measured with a FLIPR (Fluorometric Imaging Plate Reader, Molecular Devices, Sunnyvale, Calif.; laser power 0.3 W, aperture 4, measuring interval 2 s, time of measurement 120 s). During measurement 90 μl of plasma solution (90% animal plasma from animals feeded w/o antagonist, 10% Na^+-buffer: 10 mM HEPES, pH 7.4 adjusted with KOH, 133.8 mM NaCl, 4.7 mM KCl, 1.25 mM MgCl2, 1.25 mM CaCl2, 0.97 mM Na2HPO4, 0.23 mM NaH2PO4, 5 mM glucose) were added to the wells. Due to the Na^+ in the buffer NHE1 starts to transport H^+ out of the cells, leading to an increase in intracellular pH and fluorescence. High control: plasma solution without antagonist. Low control: plasma solution with 20 μM cariporide (10 μM final concentration). Cariporide was added to the plasma after preparation. […] For calibration different amounts of cariporide and the tested antagonists were added to plasma after preparation to determine the efficiency in animal plasma.
# (§4) For calculation of NHE1 activity, the increase in fluorescence between the 12th and 32nd s was calculated. The high control was set as 100% activity whereas the low control determines 0% NHE1 activity. %-activity of the samples was calculated by a comparison to the controls.
# [2] = as above; format: cell-based, human; conditions: male, New Zealand, rabbit, plasma, oral, 0.3 % in chow; rabbits on 0.3% cariporide chow, 1 week; inferred from complete NHE1 block
# Description: as §1, §2, §3, §4
# hNHE1 [3] = target: T1, hNHE1; test: NHE1 plasma assay (pH recovery, BCECF/FLIPR) with plasma of treated rats; format: cell-based
# Procedure: The animals used for the plasma studied were pretreated as follows: • Animals: Male Sprague Dawley rats (Moellegard) • Body weight: 320-360 g • Anesthesia: Thiopental-Na (Trapanal 100 mg/kg i.p.) • Respiration: 40 Vol % O2 • Blood gases: 32-40 mmHg pCO2 • 80-100 mmHg PO2 • pH 7.35-7.49 • SaO2>96% • Ischemia: 20 min occlusion of LAD (left anterior descending coronary artery) • Reperfusion: 60 min • Body temperature: 36.5° C. • Measurement parameters: myocardial infarct mass mean arterial blood pressure heart rate • compound plasma levels • Blood samples: single probe, 85 min after i.v. injection (end of reperfusion) • or • single probe 200 min after oral treatment (end of reperfusion)
# Different amounts of plasma were prepared from groups I to VII 85 mins after injection (groups I-IV, VII) or 200 mins after treatment (groups V-VI) and from untreated rats. Plasma was stored at −20° C. until the analysis was performed.
# For the cell-based determination of NHE1 ligand efficiency, LAP1 (mouse LTK-cell line) cells stably expressing hNHE1 (see Example 1) were seeded at a density of 25.000 cells/well/100 μl medium (Iscove-medium, 10% FCS, 2 mM L-glutamine, 100 μ/ml penicilline/streptomycine, 50 μg/ml gentamicine, 400 μg/ml G418) on black, clear bottom 96-well microplates (Costar®, Corning Inc., Corning, N.Y.). Cells were incubated overnight at 37° C., 5% CO2 and 90% humidity. The medium was discarded prior to measurement and 100 μl/well dye buffer (20 mM HEPES, pH 7.4 adjusted with KOH, 20 mM NH4Cl, 115 mM choline chloride, 1 mM MgCl2, 1 mM CaCl2, 5 mM KCl, 5 mM glucose, 5 μM BCECF) were added. After incubation for 20 min at 37° C. the cells were washed 3-times with Na^+-free washing buffer (5 mM HEPES, pH 7.4 adjusted with KOH, 133.8 mM choline chloride, 4.7 mM KCl, 1.25 mM CaCl2, 1.25 mM MgCl2, 0.97 mM K2HPO4, 0.23 mM KH2PO4, 5 mM glucose), leaving 90 μl of washing buffer per well. The plasma probes were prepared as followed: 10% (v/v) Na^+-buffer (10 mM HEPES, pH 7.4 adjusted with KOH, 133.8 mM NaCl, 4.7 mM KCl, 1.25 mM MgCl2, 1.25 mM CaCl2, 0.97 mM Na2HPO4, 0.23 mM NaH2PO4, 5 mM glucose) were added to 90% (v/v) rat plasma.
# High controls (plasma solution without antagonist) and low controls (plasma solution with 20 μM cariporide, 10 μM final concentration) were prepared. […]
# The pH-recovery was measured with a FLIPR (Fluorometric Imaging Plate Reader, Molecular Devices, Sunnyvale, Calif.; laser power 0.3 W, aperture 4, measuring interval 2 s, time of measurement 120 s). […]
# For calculation of NHE1 activity, the increase in fluorescence between the 12th and 32nd s was calculated. […] Activity (%) of the samples was calculated by a comparison of the controls. Compound plasma levels were calculated in relation to the calibration curve.
# [4] = rat plasma, 1 mg/kg i.v., 85 min after injection
# T2 sequence (P19634 whole entry): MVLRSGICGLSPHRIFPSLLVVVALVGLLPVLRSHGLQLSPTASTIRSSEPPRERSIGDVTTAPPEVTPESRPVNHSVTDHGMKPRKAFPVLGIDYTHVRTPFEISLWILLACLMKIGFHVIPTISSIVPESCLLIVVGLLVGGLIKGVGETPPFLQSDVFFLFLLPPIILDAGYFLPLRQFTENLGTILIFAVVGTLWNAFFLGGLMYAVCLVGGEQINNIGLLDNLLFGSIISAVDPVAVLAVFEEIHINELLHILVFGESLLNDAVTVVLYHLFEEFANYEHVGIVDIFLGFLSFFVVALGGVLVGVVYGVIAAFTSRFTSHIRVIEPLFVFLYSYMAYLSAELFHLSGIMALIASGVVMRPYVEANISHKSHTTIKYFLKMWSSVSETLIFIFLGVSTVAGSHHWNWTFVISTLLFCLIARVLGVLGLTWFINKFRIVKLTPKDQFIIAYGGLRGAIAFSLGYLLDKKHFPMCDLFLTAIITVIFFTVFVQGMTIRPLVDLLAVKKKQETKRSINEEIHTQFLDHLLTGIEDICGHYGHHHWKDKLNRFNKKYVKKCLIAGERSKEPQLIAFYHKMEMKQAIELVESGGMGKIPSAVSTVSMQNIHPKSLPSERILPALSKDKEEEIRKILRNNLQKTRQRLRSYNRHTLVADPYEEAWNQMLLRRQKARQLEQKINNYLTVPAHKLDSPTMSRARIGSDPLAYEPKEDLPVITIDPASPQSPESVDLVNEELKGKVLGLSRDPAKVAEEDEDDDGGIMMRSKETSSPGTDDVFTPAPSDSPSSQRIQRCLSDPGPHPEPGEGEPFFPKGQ
# T1 sequence (P19634 whole entry): as above
structure (smiles),measurement,setting,value
CC(C)c1ccc(C(=O)NC(=N)N)cc1S(C)(=O)=O [cariporide],EC50,"hNHE1 [1]; calibration curve, dilution series in 90% rat plasma/10% Na+-buffer, LAP1 cells expressing hNHE1, read-out: calculated efficiency in rat plasma (EC50)",115 nM
same,Fit parameter A of the calibration curve,hNHE1 [1]; rat plasma calibration curve,−7.947
same,Fit parameter B of the calibration curve,hNHE1 [1]; rat plasma calibration curve,86.547
same,Fit parameter D of the calibration curve,hNHE1 [1]; rat plasma calibration curve,−1.239
same,EC50,"hNHE1 [1]; rat plasma calibration curve, C corresponds to the EC50 (0.662 = 662 nM for compound X), read-out: Fit parameter C of the calibration curve",189 nM
same,block of NHE1 activity,human NHE1 (hNHE1); 10 μM cariporide (final) added to plasma,complete block
same,"Fluorescence increase measured between the 12th and 32nd s, Average","human NHE1 (hNHE1); low control: rabbit plasma with 10 μM cariporide, high control 14416",631
same,NHE1 Activity [%],"human NHE1 (hNHE1); plasma from individual rabbits on 0.3% cariporide chow, sample after 1 week, relative to high/low controls",−0.63% and −5.45% (2×) and −1.53% and −0.39% and −2.25%
same,block of NHE1 by plasma probes,human NHE1 (hNHE1); plasma from rabbits on 0.3% cariporide chow,complete block
same,concentration at 1 week,[2],≥ 10 µM
same,rel. FI increase mean,hNHE1 [3]; low control: rat plasma solution with 10 μM final cariporide,3110
same,Activity [%] mean,"hNHE1 [3]; low control: rat plasma with 10 μM final cariporide, set as 0% NHE1 activity",0%
same,Activity [%] mean,hNHE1 [3]; [4],49.95%
same,rel. FI increase mean,hNHE1 [3]; [4],7392
